What all share (format): cell-based, human
Assay [1] concerns PKA activity in HMEC-1 cells. Description: PKA activity assay in endothelial cells. The note with it: IP-10dp 10 μM. As for the experimental part: To further investigate the cAMP activation of PKA, a PKA assay experiment was conducted. As above, HMEC-1 cells were grown in complete growth media then further incubated in 0.5% dialyzed FBS MCDB 131 media for 24 hours. The cells were then stimulated with forskolin ([…]), and/or combinations of VEGF (100 ng/ml), IP-10 (200 ng/ml), and/or IP-10dp (10 μM) for 15, 30 and 60 minutes. The cells were lysed with an ice-cold hypotonic solution (50 mM Tris pH 7.4, 1 mM EDTA, 10 mg/ml aprotinin and 1 mM PMSF). The cells were incubated on ice for 30 minutes then centrifuged to remove the cell membranes. PKA activity was measured using a commercially available cAMP dependent protein kinase kit (Non-Radioactive Detection kit, from Promega Corp., of Madison, Wis.) according to the manufacturer's protocol. Absorbance was read at 570 nm with the solubilization buffer serving as a blank.

The subject of assay [2] is HMEC-1 cells transfected with CXCR3 siRNA. The experiment in a line: Scratch assay in cells transfected with CXCR3 siRNA. The note with it: CXCR3 knockdown; procedure of Experiment 2. As to the method:
In the various experiments described below, to the extent not otherwise noted, CXCR3 siRNA transfection was preformed according to the procedure as previously described by Koh et al. (“Methods in Enzymology,” 2008, vol 443, p. 84), and summarized briefly as follows. HMEC-1 cells were plated in 6 well tissue culture plate at 4.0×10^5 cells/well in complete MCDB131 media and incubated overnight. The cells were ˜75% confluent. The media was removed and replaced with serum free Opti-Mem and incubated for 30 minutes. Dharmafect #4 was added to Opti-Mem to a final concentration of 2.5% (final volume […]) then incubated for 5 minutes at room temp. In parallel, CXCR3 siRNA was diluted in Opti-Mem to a final concentration of […] then incubated for 5 minutes at room temp. CXCR3 siRNA was a pool of equal concentration from Sigma and Santa Cruz. The Dharmafect solution was added to the CXCR3 siRNA pool and incubated for 20 minutes at room temp. […]
To determine whether IP-10dp inhibits endothelial cell motility, a conventional “scratch assay” was performed. […] Images were taken at time zero and 24 hours, and the relative distance traveled by the cells into the a cellular area was determined using MetaMorph. The HMEC-1 culture images were analyzed for the ability of the cells to migrate into a denuded area over a 24 hour period in the presence or absence of VEGF165. […]

In assay [3] the test system is m-calpain in HMEC-1 cells. Description: Calpain activity by Boc-LM-CMAC cleavage. The note with it: IP-10dp 10 μM, VEGF 75 ng/ml, BAPTA/AM pre-incubation. The source says: Prior research has also shown that in endothelial cells, the CXCR3-activation of PKA inhibits motility secondary to inhibitory phosphorylation of m-calpain (also known as […]). VEGF induces calpain activity in endothelial cells, and […] (also known as […]) is activated, at least in part, by ERK phosphorylation on serine 50 and in other cells μ-calpain is activated secondary to a calcium flux. In this experiment, the IP-10dp affect on m-calpain is studied by using the membrane permeable synthetic calpain substrate Boc-LM-CMAC. Since the pre-fluorescent substrate Boc-LM-CMAC can be cleaved by both m- and μ-calpain, this experiment used BAPTA/AM, a membrane permeable calcium chelator, to distinguish between m- and μ-calpain activation in cells as this blocks activation of μ-calpain but not m-calpain.
In order to establish whether the IP-10dp inhibition of motility involves this above-described blockade of calpain activation, 8 well chamber slides were coated with 0.1% gelatin for 24 hours at 4° C. The gelatin was removed and HMEC-1 cells were plated at 12,000 cells/well then incubated in 10% FBS-EBM-EC media for 24 hrs. The media was removed and the cells were further incubated for 12 hrs with 0.5% dialyzed FBS-EBM media. All cell cultures were then incubated with either BAPTA AM ([…]), or Calpain inhibitor I (CI-1, […]) at 37° C. for 30 minutes. […]

For the sequence “PESKAIKNLLKAVSKEMSKRSP (IP-10dp; listed as Homo sapiens) [synthetic fragment of IP-10 comprising residues 78-98, the C-terminal α-helical domain]”, the “fold increase in PKA assay” value in assay [1] is given as 2-3 fold. Also, in assay [1] (15, 30 and 60 minutes), the “PKA activity in comparison to VEGF and untreated cells” value is recorded as “significant increase in PKA activity”. Also, the “inhibition of VEGF-induced motility in CXCR3 siRNA-transfected cells” value in assay [2] is given as “unable to inhibit VEGF-induced motility”. Also, the “VEGF mediated m-calpain activity” value in assay [3] was “inhibits VEGF mediated m-calpain activity”.

The record behind these values is patent US8734775B2, “Chemokine derived peptides that bind with chemokine receptor CXCR3 and uses for chronic wound and angiogenesis inhibition treatments” (University of Pittsburgh, priority 2011, dated 2014).
